Reference: patent US20240391954A1, “MC4R AGONIST PEPTIDES” (The Regents of the University of Michigan, priority 2021, published 2024)
Positions of bridges follow the written chain, without caps; N, C: chain ends. Non-standard residues stand in square brackets, D forms with d. Residues, ends and D or L forms follow the SMILES beside them. d2Nal = N[C@H](Cc1ccc2ccccc2c1)C(=O)O; d(αMeF) = C[C@@](N)(Cc1ccccc1)C(=O)O; 3Pal = N[C@@H](Cc1cccnc1)C(=O)O; Cit = NC(=O)NCCC[C@H](N)C(=O)O; Nle = CCCC[C@H](N)C(=O)O; Orn = NCCC[C@H](N)C(=O)O; Aib = CC(C)(N)C(=O)O

How the values were obtained:
Type in all cases: cell-based
human MC1R = molecular target: T1, human MC1R (Homo sapiens, UniProt Q01726); test: split-luciferase cAMP sensor assay, agonist mode, hMC1R; conditions: MC4R versus MC1R
T1 construct: expressed in transfected cells; host or cells: HEK-293 cells stably expressing hMC1R and the GScAMP22F cAMP sensor
In short: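 HEK-293 cells stably expressing hMC1R and the GScAMP22F split-luciferase cAMP sensor, preloaded 120 min at 37° C with D-luciferin in serum-free medium. Peptide responses were taken as peak luminescence over 2-13 min minus 2-min baseline, normalized to the α-MSH ECmax. EC50 was obtained from a four-parameter variable-slope fit.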

human MC3R = molecular target: T2, human MC3R (Homo sapiens, UniProt P41968); test: split-luciferase cAMP sensor assay, agonist mode (measurement window 1), hMC3R; conditions: for Emax: % maximal activation, read-out: MC3R cAMP % max activation; for Emax / EC50: agonist mode; for EC50: HEK-293 cells stably expressing hMC3R, read-out: MC3R cAMP EC50; for MC4R selectivity vs MC3R: MC4R versus MC3R
T2 construct: expressed in transfected cells; host or cells: HEK-293 cells stably expressing the GScAMP22F split-luciferase cAMP sensor (parent reporter line from Promega); MC3R clone generated in-house, G418 selection
In short: (§1)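 Live stable cell lines carrying receptor plus GloSensor cAMP22f split-luciferase, loaded with 4% D-luciferin in serum-free medium (~1% serum estimated during assay). Luminescence recorded during in-line peptide addition; direct agonist effect read in window 1, with 20 μM forskolin as normalization reference. EC50 from four-parameter sigmoid fit.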

human MC4R = molecular target: T3, human MC4R (Homo sapiens, UniProt P32245); test: split-luciferase cAMP sensor assay, agonist mode (measurement window 1), hMC4R; conditions: agonist mode; for Emax: % maximal activation, read-out: MC4R cAMP % max activation; for EC50: HEK-293 cells stably expressing hMC4R, read-out: MC4R cAMP EC50
T3 construct: host or cells: HEK-293 cells stably expressing the GScAMP22F split-luciferase cAMP sensor and hMC4R, G418 selection
In short: as §1

T1 sequence (Q01726 whole entry): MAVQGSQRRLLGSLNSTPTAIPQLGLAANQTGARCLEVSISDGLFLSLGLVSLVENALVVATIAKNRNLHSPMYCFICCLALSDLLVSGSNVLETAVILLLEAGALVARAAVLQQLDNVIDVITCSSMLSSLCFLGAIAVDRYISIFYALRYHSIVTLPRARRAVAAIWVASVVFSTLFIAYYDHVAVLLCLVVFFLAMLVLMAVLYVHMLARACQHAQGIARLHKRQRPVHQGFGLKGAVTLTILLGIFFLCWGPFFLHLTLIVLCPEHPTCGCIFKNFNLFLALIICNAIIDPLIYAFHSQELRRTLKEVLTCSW
T2 sequence (P41968 whole entry): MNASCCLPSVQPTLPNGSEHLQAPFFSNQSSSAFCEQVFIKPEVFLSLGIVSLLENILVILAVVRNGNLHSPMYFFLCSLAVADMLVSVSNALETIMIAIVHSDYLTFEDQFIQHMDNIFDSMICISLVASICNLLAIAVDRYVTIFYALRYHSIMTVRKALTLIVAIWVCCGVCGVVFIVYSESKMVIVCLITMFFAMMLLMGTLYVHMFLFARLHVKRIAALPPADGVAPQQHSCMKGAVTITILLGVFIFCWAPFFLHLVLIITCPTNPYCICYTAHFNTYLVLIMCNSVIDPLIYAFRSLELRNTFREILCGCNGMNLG
T3 sequence (P32245 whole entry): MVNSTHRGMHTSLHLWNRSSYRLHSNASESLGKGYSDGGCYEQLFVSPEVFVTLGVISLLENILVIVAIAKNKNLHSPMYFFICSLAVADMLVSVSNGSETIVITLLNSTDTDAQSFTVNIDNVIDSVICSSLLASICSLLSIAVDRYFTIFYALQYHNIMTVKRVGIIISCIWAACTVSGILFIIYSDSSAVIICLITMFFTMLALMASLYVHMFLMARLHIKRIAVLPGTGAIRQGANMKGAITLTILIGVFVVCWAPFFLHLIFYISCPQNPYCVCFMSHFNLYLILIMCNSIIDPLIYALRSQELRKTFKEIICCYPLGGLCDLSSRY

Row | SMILES | MC4R selectivity vs MC1R (human MC1R) | Emax (human MC3R) | EC50 (human MC3R) | MC4R selectivity vs MC3R (human MC3R) | Emax (human MC4R) | EC50 (human MC4R)
1 | CC(=O)N[C@@H](CCCNC(=N)N)C(=O)N[C@H]1CSSC[C@@H](C(N)=O)NC(=O)[C@@H](Cc2c[nH]c3ccccc23)NC(=O)[C@H](CCCNC(=N)N)NC(=O)[C@@H](Cc2ccccc2)NC(=O)[C@H](CCCNC(N)=O)NC(=O)C(C)(C)NC1=O [CTX-1290, Arg-cyclo(Cys-Aib-Cit-D-Phe-Arg-D-Trp-Cys)] (Ac-RC[Aib][Cit][dF]R[dW]C-NH2; disulfide 2-8) | 10 | 20% | 1040 nM | 9.23 | 88% | 
2 | CC(=O)N[C@@H](CCCNC(=N)N)C(=O)N[C@H]1CSSC[C@@H](C(N)=O)NC(=O)[C@H](Cc2c[nH]c3ccccc23)NC(=O)[C@H](CCCNC(=N)N)NC(=O)[C@@](C)(Cc2ccccc2)NC(=O)[C@H](CCCNC(=N)N)NC(=O)[C@@H](C)NC1=O [CTX-1278] (Ac-RC[dA]R[d(αMeF)]RWC-NH2; disulfide 2-8 (inferred)) | 1.13 | 86% |  | 12 | 105% | 
3 | CCCC[C@H](NC(=O)[C@H](CCCNC(=N)N)NC(C)=O)C(=O)N[C@H]1CSSC[C@@H](C(N)=O)NC(=O)[C@H](Cc2c[nH]c3ccccc23)NC(=O)[C@H](CCCNC(=N)N)NC(=O)[C@H](Cc2ccccc2)NC(=O)[C@H](CCCNC(N)=O)NC1=O [CTX-1609, Arg-Nle-cyclo(Cys-Cit-Phe-Arg-Trp-Cys)] (Ac-R[Nle]C[Cit]FRWC-NH2; disulfide 3-8 (inferred)) | 4.15 | 65% |  | 4.72 | 96% | 
4 | C[C@H]1NC(=O)CSC[C@@H](C(N)=O)NC(=O)[C@H](Cc2ccccc2)NC(=O)[C@H](CCCNC(=N)N)NC(=O)[C@@H](Cc2ccccc2)NC(=O)[C@H](Cc2c[nH]cn2)NC1=O [CTX-1656, Thioether-cyclo(D-Ala-His-D-Phe-Arg-Phe-Cys)] ({CH2CO}-[dA]H[dF]RFC-NH2; thioether N-6) | 1 | 86% |  | 1.64 | 98% | 1400 nM
5 | CC(=O)N[C@@H](CCCNC(=N)N)C(=O)N[C@H]1CSSC[C@@H](C(N)=O)NC(=O)[C@H](Cc2ccccc2)NC(=O)[C@H](CCCNC(=N)N)NC(=O)[C@@H](Cc2ccccc2)NC(=O)[C@H](Cc2cccnc2)NC(=O)C(C)(C)NC1=O [CTX-1605, Arg-cyclo(Cys-Aib-Pal(3′)-D-Phe-Arg-Phe-Cys)] (Ac-RC[Aib][3Pal][dF]RFC-NH2; disulfide 2-8 (inferred)) | 0.14 |  | > 10000 nM | >300 | 85% | 
6 | CC1(C)NC(=O)CSC[C@@H](C(N)=O)NC(=O)[C@H](Cc2c[nH]c3ccccc23)NC(=O)[C@H](CCCNC(=N)N)NC(=O)[C@@H](Cc2ccccc2)NC(=O)[C@H](CCCNC(=N)N)NC1=O [CTX-1648, Thioether-cyclo(Aib-Arg-D-Phe-Arg-Trp-Cys)] ({CH2CO}-[Aib]R[dF]RWC-NH2; thioether N-6) | 13 | 91% | 72 nM | 63 | 101% | 
7 | CC(=O)N[C@@H](CCCNC(=N)N)C(=O)N[C@H]1CSSC[C@@H](C(N)=O)NC(=O)[C@@H](Cc2ccc3ccccc3c2)NC(=O)[C@H](CCCNC(=N)N)NC(=O)[C@@H](Cc2ccccc2)NC(=O)[C@H](CCCNC(=N)N)NC(=O)[C@@H](C)NC1=O [CTX-1264, Arg-cyclo(Cys-D-Ala-Arg-D-Phe-Arg-D-Nal(2′)-Cys)] (Ac-RC[dA]R[dF]R[d2Nal]C-NH2; disulfide 2-8 (inferred)) | 0.14 | 44% | 3.7 nM | 0.29 | 80% | 13 nM
8 | CCCC[C@H](NC(=O)[C@H](CCCNC(=N)N)NC(C)=O)C(=O)N[C@H]1CSSC[C@@H](C(N)=O)NC(=O)[C@H](Cc2ccccc2)NC(=O)[C@H](CCCNC(=N)N)NC(=O)[C@@H](Cc2ccc(OC)cc2)NC(=O)[C@H](CCCNC(=N)N)NC1=O [CTX-1624, Arg-Nle-cyclo(Cys-Arg-D-Tyr(4-OMe)-Arg-Phe-Cys)] (Ac-R[Nle]CR[dY](Me)RFC-NH2; disulfide 3-8 (inferred)) | 0.15 | 66% |  | 0.47 | 83% | 12 nM
9 | CCCC[C@H](NC(=O)[C@H](CCCNC(=N)N)NC(C)=O)C(=O)N[C@H]1CSSC[C@@H](C(N)=O)NC(=O)[C@H](Cc2c[nH]c3ccccc23)NC(=O)[C@H](CCCNC(=N)N)NC(=O)[C@@H](Cc2ccccc2)NC(=O)[C@H](CCCN)NC1=O [CTX-1617, Arg-Nle-cyclo(Cys-Orn-D-Phe-Arg-Trp-Cys)] (Ac-R[Nle]C[Orn][dF]RWC-NH2; disulfide 3-8) | 1.75 | 102% |  | 11 | 102% | 
10 | N=C(N)NCCC[C@@H]1NC(=O)CNC(=O)CSC[C@@H](C(N)=O)NC(=O)[C@H](Cc2ccccc2)NC(=O)[C@H](CCCNC(=N)N)NC(=O)[C@@H](Cc2ccccc2)NC1=O [CTX-1654, Thioether-cyclo(Gly-Arg-D-Phe-Arg-Phe-Cys)] ({CH2CO}-GR[dF]RFC-NH2; thioether N-6) | 0.62 | 43% |  | 5.41 | 81% | 
11 | C[C@H]1NC(=O)CSC[C@@H](C(N)=O)NC(=O)[C@H](Cc2ccccc2)NC(=O)[C@H](CCCNC(=N)N)NC(=O)[C@@H](Cc2ccccc2)NC(=O)[C@H](CCCNC(=N)N)NC1=O [CTX-1657, Thioether-cyclo(D-Ala-Arg-D-Phe-Arg-Phe-Cys)] ({CH2CO}-[dA]R[dF]RFC-NH2; thioether N-6) | 1.42 | 30% |  | 3.56 | 78% | 
12 | CC(=O)N[C@@H](CCCNC(=N)N)C(=O)N[C@H]1CSSC[C@@H](C(N)=O)NC(=O)[C@H](Cc2c[nH]c3ccccc23)NC(=O)[C@H](CCCNC(=N)N)NC(=O)[C@@H](Cc2ccccc2)NC(=O)[C@H](CCCNC(N)=O)NC(=O)CNC1=O [CTX-1294, Arg-cyclo(Cys-Gly-Cit-D-Phe-Arg-Trp-Cys)] (Ac-RCG[Cit][dF]RWC-NH2; disulfide 2-8 (inferred)) | 111 | 33% |  | 11 | 102% | 
13 | CC(=O)N[C@H]1CSSC[C@@H](C(N)=O)NC(=O)[C@H](Cc2ccccc2)NC(=O)[C@H](CCCNC(=N)N)NC(=O)[C@@H](Cc2ccccc2)NC(=O)[C@H](Cc2c[nH]cn2)NC(=O)C(C)(C)NC1=O [CTX-1634, cyclo(Cys-Aib-His-D-Phe-Arg-Phe-Cys)] (Ac-C[Aib]H[dF]RFC-NH2; disulfide 1-7 (inferred)) | 4.02 | 94% |  | 6.68 | 107% | 
14 | CC(=O)N[C@@H](CCCNC(=N)N)C(=O)N[C@H]1CSSC[C@@H](C(N)=O)NC(=O)[C@H](Cc2ccccc2)NC(=O)[C@H](CCCNC(=N)N)NC(=O)[C@@H](Cc2ccccc2)NC(=O)[C@H](CCCNC(=N)N)NC(=O)C(C)(C)NC1=O [CTX-1601, Arg-cyclo(Cys-Aib-Arg-D-Phe-Arg-Phe-Cys)] (Ac-RC[Aib]R[dF]RFC-NH2; disulfide 2-8) | 0.93 | 73% |  | 2.3 | 97% | 
